According to paper PMC11403280, “Subclass IId bacteriocins targeting mannose phosphotransferase system—Structural diversity and implications for receptor interaction and antimicrobial activity” (PNAS Nexus, 2024):
Where two headings read alike, the source gives them in different places. Ends that are not written are not given here.

Key:
[1] = system: Spontaneous Man-PTS mutants of L. garvieae IBB3403; assay: 2-fold serial dilutions sensitivity assay, Table S4; format: cell-based, Lactococcus garvieae
Description: (§1) To identify the individual amino acid residues of Man-PTS required for the sensitivity to the newly defined bacteriocins, and thus probably involved in their interaction with the receptor, spontaneous mutants of L. lactis IL1403 and L. garvieae IBB3403 with resistance to individual bacteriocins and preserved Man-PTS functionality were selected. Out of the nine new bacteriocins, five (GarAG3, RhmB, LcnC, EntG1, and MurA) were potent enough to produce resistant mutants in their presence. In total, 34 resistant L. lactis IL1403 mutants were obtained, including three selected in the presence of RhmB, 15 in the presence of EntG1, 2—LcnC, and 14—MurA; 38 resistant L. garvieae IBB3403 mutants were obtained in the presence of GarAG3 (Table S1). They were 4- to over 1,024-fold less sensitive to the bacteriocin used for the selection than the parental strain and carried, respectively, a combined total of 11 and 10 independent mutations in the ptnCD genes of L. lactis IL1403 and the manCD genes of L. garvieae IBB3403. Ten mutations in L. lactis led to amino acid substitutions in IIC (Gly62Val, Ala110Thr, Met120Ile, and Ala187Val) or IID (Gly126Ser, Ala127Thr, Ser214Leu, Gly221Cys, Tyr223Cys, and Gly229Val), and one led to the deletion of eight amino acids (221-228GlyAlaTyrLeuGluPheProLys) in IID.
(§2) The activity of peptides of interest against indicator strains and L. garvieae IBB3403- or L. lactis IL1403-derived strains was determined using the spot-on-lawn assay as described previously ([7]). Spontaneous bacteriocin-resistant mutants were selected by growing L. garvieae IBB3403 or L. lactis IL1403 in the presence of a bacteriocin in CDM ([43]) supplemented with 1% mannose (Man-CDM) as described previously ([7]). GarAG3-resistant L. garvieae IBB3403 mutants (LG1—LG32, LG34–LG38, and LG40) were selected at the bacteriocin concentration of 0.024 µg/mL. L. lactis IL1403 mutants resistant to EntG1 (LLG1–LLG3, LLG7–LLG9, LLG11, LLG12, LLG14, LLG19, LLG21, LLG25, LLG32, LLG46, and LLG50), RhmB (LLB2, LLB3, and LLB17), MurA (LLA1, LLA7, LLA8, LLA12, LLA19–LLA22, LLA24, and LLA26–LLA30), and LcnC (LLC1, LLC2) were selected at bacteriocin concentrations of 12.5µg/mL, 1.56µg/mL, 1.56 µg/mL, and 4 ng/mL, respectively. The sensitivity of the mutants was determined using 2-fold serial dilutions assay as described previously ([7]).
Table S4. Spontaneous mutants of L. garvieae IBB3403 resistant to GarAG3, GarA, GarB, GarC, GarQ, MurA, and ubericin K
(§3) Sensitivity to Position in the cell
(§4) Mutant strain Mutation Amino acid change [fold-decreased relative to WT] membrane of affected
GarAG3 GarA GarB GarC GarQ MurA Ubericin Man-PTS amino acid(s)
LG9 manD: 800G>T ManD: Gly267Val 16x 0x 8x 2x 4x 0.5x 4x extracellular (region γ+)
TTGTTGGTAACG 262_265delAsnValValGly
GTAACGGTGTTG 265_268delGlyAsnGlyVal
LGA10 manD: 173C>A ManD: Ala58Asp 8x 2x 4x 4x 2x 2x 8x transmembrane (HP2a)
5 μl of each bacteriocin at a concentration of 1 mg/ml was used; “>” substitution; “del”deletion; “ins” insertion

[2] = system: Vero, HepG2, and Caco-2 cell lines; conditions: ref [36], [37], cited from earlier work
Description: The use of bacteriocins as antibacterial agents offers a promising solution to some of the most challenging public health problems today, such as the emergence of difficult-to-treat infections caused by antibiotic-resistant pathogens ([29]) or the breakouts of foodborne diseases ([30]). Here, we have identified nine new bacteriocins of which five (MurA, MsnC, RhmB, AglA, and LcbC) could have potential in the treatment of infections caused by vancomycin-resistant Enterococcus faecium and Enterococcus faecalis strains ([31]), and four (MurA, MsnC, RhmB, and AglA) in the prevention of L. monocyto ...

[3] = system: Spontaneous Man-PTS mutants of L. lactis IL1403; assay: 2-fold serial dilutions sensitivity assay, Table S3; format: cell-based, Lactococcus lactis
Description: as §1, §2
Table S3. Spontaneous mutants of L. lactis IL1403 resistant to RhmB, EntG1, LcnC, MurA, GarQ, BacSJ, ubericin K, and GarC
as §3, §4
RhmB EntG1 LcnC MurA GarQ BacSJ Ubericin GarC Man-PTS amino acid(s)
mutations GlyAlaTyrLeuGluPheProLys
“>” substitution; “del”deletion

[4] = target: Man-PTS membrane complex IICIID of L. garvieae (ManCD) (L. garvieae (endogenous in L. garvieae IBB3403))

EYHLMNGANGYLTRVNGKYVYRVTKDPVSAVFGVISNGWGSAGAGFGPQH [GarQ]
Sensitivity to [fold-decreased relative to WT] ([1]; LG1 etc., ManD: Arg203Leu): 0 x | Sensitivity to [fold-decreased relative to WT] ([1]; LG2, ManC: Gly60Cys): 32 x | Sensitivity to [fold-decreased relative to WT] ([1]; LG6, ManD: Trp256Leu): 16 x | Sensitivity to [fold-decreased relative to WT] ([1]; LG9, ManD: Gly267Val): 4 x | Sensitivity to [fold-decreased relative to WT] ([1]; LG11, 13, 22, 28, ManD: Arg203Cys): 2 x | Sensitivity to [fold-decreased relative to WT] ([1]; LG12, ManD: 262_265delAsnValValGly): 4 x | Sensitivity to [fold-decreased relative to WT] ([1]; LG18, ManD: 265_268delGlyAsnGlyVal): 4 x | Sensitivity to [fold-decreased relative to WT] ([1]; LG23, 29, ManC: Gly188Val): 4 x | Sensitivity to [fold-decreased relative to WT] ([1]; LG32, ManD: Ser318Leu): 2 x | Sensitivity to [fold-decreased relative to WT] ([1]; LG36, ManC: Gly60Val): 128 x | Sensitivity to [fold-decreased relative to WT] ([1]; LGA2, ManC: Leu59Pro): 128 x | Sensitivity to [fold-decreased relative to WT] ([1]; LGA3, ManC: Gly52Val): 4 x | Sensitivity to [fold-decreased relative to WT] ([1]; LGA6, ManC:190_191insVal): 4 x | Sensitivity to [fold-decreased relative to WT] ([1]; LGA10, ManD: Ala58Asp): 2 x | Sensitivity to [fold-decreased relative to WT] ([1]; LGB6, ManD: Gln313Lys): 2 x | Sensitivity to [fold-decreased relative to WT] ([1]; LGC1, ManD: Met34Ile): 0 x | Sensitivity to [fold-decreased relative to WT] ([1]; LGC8, ManD: Tyr226Asp): 16 x | Sensitivity to [fold-decreased relative to WT] ([1]; LGC13, ManC: Ala106Val): 4 x | Sensitivity to [fold-decreased relative to WT] ([1]; LGC15, ManD: Ala133Val, Val315Met): 4 x | Sensitivity to [fold-decreased relative to WT] ([1]; LGN1, ManD: Gly301Val): > 1024 x | Sensitivity to [fold-decreased relative to WT] ([1]; LGN2, ManD: Ala133Val): 16 x | Sensitivity to [fold-decreased relative to WT] ([1]; LGN9, ManC: Ala102Val): 16 x | Sensitivity to [fold-decreased relative to WT] ([1]; PW202, ManC: Pro100His): > 1024 x | Sensitivity to [fold-decreased relative to WT] ([1]; PW203, ManD: Thr123Ile): > 1024 x | Sensitivity to [fold-decreased relative to WT] ([1]; PW204, ManD: Pro111Ser): > 1024 x | Cytotoxicity ([2]; highly purified, concentrations up to 1 mg/mL): no cytotoxicity | Sensitivity to [fold-decreased relative to WT] ([3]; LLA1 etc. (MurA-resistant), PtnC: Ala110Thr): 4 x | Sensitivity to [fold-decreased relative to WT] ([3]; LLB2,LLB3, PtnD: Gly126Ser): 0 x | Sensitivity to [fold-decreased relative to WT] ([3]; LLB17, PtnD: Ser214Leu): 256 x | Sensitivity to [fold-decreased relative to WT] ([3]; LLC1, LLC2, PtnC: Gly62Val): 64 x | Sensitivity to [fold-decreased relative to WT] ([3]; LLG1, LLG2, PtnD: 221-228del): 16 x | Sensitivity to [fold-decreased relative to WT] ([3]; LLG3, LLG9, LLG11, LLG32, LLG46, PtnD: Gly229Val): 16 x | Sensitivity to [fold-decreased relative to WT] ([3]; LLG7, LLG19, LLG21, PtnD: Ala127Thr): 8 x | Sensitivity to [fold-decreased relative to WT] ([3]; LLG8, PtnD: Gly221Cys): 16 x | Sensitivity to [fold-decreased relative to WT] ([3]; LLG12, LLG14, PtnC: Ala187Val): 8 x | Sensitivity to [fold-decreased relative to WT] ([3]; LLG25, PtnD: Tyr223Cys): 16 x | Sensitivity to [fold-decreased relative to WT] ([3]; LLG50, PtnC: Met120Ile): 4 x | Sensitivity to [fold-decreased relative to WT] ([3]; LLN1, PtnD: Pro123His): > 1024 x | Sensitivity to [fold-decreased relative to WT] ([3]; M6, PtnD: Arg200His): 8 x | Sensitivity to [fold-decreased relative to WT] ([3]; M16, PtnD: Leu83Phe): 0 x | Sensitivity to [fold-decreased relative to WT] ([3]; M19, PtnD: Phe226Ser): 8 x | Sensitivity to [fold-decreased relative to WT] ([3]; M30, PtnD: Leu197Phe): 16 x

GarQ_(Asn9Gly) (peptide)
minimum inhibitory concentration against L. garvieae IBB3403, fold decrease in activity relative to native GarQ [4]: > 512 fold

GarQ_(Tyr11Leu) (peptide)
minimum inhibitory concentration against L. garvieae IBB3403, fold decrease in activity relative to native GarQ [4]: > 512 fold

PedPA-1: subclass IIa pediocin-like bacteriocin (KYYGNGVTCGKHSCSVDWGKATTCIINNGAMAWATGGHQGNHKC; ends and bridges not checked; cysteine pairing not given here; UniProt P29430 19-62, looked up)
Cytotoxicity ([2]; up to 400 μg/mL): no cytotoxicity
